Laboratory results reported in paper PMC12169608, “Peptidomimetic Phenoxymethyl Ketone Warheads as Potent Dual-Mode Inhibitors against SARS-CoV‑2 M^pro and Cathepsin” (Journal of Medicinal Chemistry, 2025).
Converted amounts (≈) assume the structure as drawn. Like-named read-outs stand apart in the source and are kept apart here.

Key:
[1] = target: T1, human cathepsin L (hCTSL) (Homo sapiens, UniProt P07711); test: hCTSL biochemical assay
T1 construct: purchased R&D Systems

[2] = target: mouse cathepsin L (mCTSL) (Mus musculus, UniProt P06797); test: mCTSL biochemical assay; conditions: read-out: pIC50 (mouse CTSL) (converted)
Chain of mouse cathepsin L (mCTSL) (P06797 114-334): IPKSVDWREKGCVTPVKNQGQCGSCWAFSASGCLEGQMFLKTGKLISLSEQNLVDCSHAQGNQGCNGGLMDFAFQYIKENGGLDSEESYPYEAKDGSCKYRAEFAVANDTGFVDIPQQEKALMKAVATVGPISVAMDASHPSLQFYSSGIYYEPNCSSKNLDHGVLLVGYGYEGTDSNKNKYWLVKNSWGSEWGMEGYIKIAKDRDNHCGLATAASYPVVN

[3] = target: hamster CTSL (Mesocricetus auratus, UniProt Q812A7); test: hamster CTSL biochemical assay
Chain of hamster CTSL (Q812A7 entry or part of it): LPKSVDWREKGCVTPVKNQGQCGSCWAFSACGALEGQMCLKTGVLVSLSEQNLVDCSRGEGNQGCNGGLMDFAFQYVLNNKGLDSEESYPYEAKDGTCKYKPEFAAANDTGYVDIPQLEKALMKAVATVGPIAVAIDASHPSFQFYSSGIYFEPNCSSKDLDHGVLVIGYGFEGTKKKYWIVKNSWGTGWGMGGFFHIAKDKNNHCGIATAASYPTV

[4] = test system: luciferase-expressing VSV (ΔG) pseudotyped with Spike from SARS-CoV-2; test: microbe, parasite or virus in culture; type: cell-based; conditions: Vesicular stomatitis virus, Vero C1008, read-out: Entry reporter assay pEC50 (converted)
[5] = test system: SARS-CoV-2; test: microbe, parasite or virus in culture; type: cell-based
[6] = target: T2, Calpain-1 (Homo sapiens, UniProt P07384); test: Protease panel: Calpain-1; type: biochemical
T2 construct: erythrocytes; tissue Eurofins Discovery (assay service); host or cells: human erythrocytes
T2 sequence (P07384 1-714): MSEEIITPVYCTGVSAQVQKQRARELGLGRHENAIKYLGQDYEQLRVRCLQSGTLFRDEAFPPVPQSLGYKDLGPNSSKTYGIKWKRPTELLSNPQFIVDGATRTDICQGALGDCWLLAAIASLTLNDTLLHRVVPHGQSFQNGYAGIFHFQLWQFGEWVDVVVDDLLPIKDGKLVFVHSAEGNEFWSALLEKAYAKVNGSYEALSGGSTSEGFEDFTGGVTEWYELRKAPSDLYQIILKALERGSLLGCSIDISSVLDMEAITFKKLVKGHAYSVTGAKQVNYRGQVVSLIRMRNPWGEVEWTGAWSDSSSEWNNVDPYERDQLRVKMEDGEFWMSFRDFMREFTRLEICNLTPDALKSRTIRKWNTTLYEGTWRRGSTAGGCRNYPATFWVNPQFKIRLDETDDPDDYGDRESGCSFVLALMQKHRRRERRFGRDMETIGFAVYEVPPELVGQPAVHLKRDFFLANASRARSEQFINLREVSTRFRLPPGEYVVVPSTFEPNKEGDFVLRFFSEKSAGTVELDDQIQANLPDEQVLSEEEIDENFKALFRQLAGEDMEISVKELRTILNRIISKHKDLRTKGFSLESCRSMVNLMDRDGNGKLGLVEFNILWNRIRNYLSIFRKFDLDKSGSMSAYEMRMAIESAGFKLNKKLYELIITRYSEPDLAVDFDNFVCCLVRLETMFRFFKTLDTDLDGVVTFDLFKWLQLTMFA
T2 sequence (P04632 1-268 partner): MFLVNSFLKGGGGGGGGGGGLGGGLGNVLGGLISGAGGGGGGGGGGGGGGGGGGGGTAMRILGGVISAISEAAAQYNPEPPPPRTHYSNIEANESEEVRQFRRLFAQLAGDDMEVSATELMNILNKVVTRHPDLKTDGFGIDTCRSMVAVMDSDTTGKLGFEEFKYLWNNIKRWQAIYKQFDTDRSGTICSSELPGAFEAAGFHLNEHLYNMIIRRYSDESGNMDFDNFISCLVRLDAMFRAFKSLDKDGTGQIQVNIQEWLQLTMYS

[7] = target: T3, Caspase 2 (Homo sapiens, UniProt P42575); test: Protease panel: Caspase 2; type: biochemical
T3 construct: purchased Eurofins Discovery (assay service); host or cells: E. coli
T3 sequence (P42575 170-325 limits assumed): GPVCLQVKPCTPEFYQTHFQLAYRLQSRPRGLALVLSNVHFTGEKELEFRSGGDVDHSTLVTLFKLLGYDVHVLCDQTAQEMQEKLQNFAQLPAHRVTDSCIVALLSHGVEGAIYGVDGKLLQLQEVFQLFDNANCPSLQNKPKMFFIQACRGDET
T3 sequence (P42575 348-452 limits assumed): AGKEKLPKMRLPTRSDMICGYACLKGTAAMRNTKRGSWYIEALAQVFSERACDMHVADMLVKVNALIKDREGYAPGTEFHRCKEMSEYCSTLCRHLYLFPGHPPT

[8] = target: T4, Cathepsin D (Homo sapiens, UniProt P07339); test: Protease panel: Cathepsin D; type: biochemical
T4 construct: Human liver; tissue Eurofins Discovery (assay service); host or cells: human liver
T4 sequence (P07339 65-412): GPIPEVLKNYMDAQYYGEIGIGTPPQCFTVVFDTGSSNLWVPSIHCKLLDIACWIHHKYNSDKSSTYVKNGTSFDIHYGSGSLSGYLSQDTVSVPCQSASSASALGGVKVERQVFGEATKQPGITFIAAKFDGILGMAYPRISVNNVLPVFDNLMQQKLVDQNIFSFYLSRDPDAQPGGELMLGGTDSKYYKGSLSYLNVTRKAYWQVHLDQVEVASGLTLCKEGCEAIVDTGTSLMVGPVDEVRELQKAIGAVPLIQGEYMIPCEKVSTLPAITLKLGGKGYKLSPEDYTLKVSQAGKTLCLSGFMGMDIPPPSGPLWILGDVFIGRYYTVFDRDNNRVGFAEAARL

[9] = 3 h, 2 µM
[10] = hamster, in vivo, ip, 100 mg/kg
[11] = in vitro; conditions: African green monkey
[12] = physchem; conditions: pH 7.4
[13] = in vitro; conditions: mouse, hepatocytes; for hepatocyte CLint at 2 h, 2 µM: CLint (mouse hepatocytes)
[14] = in vitro; conditions: hamster, hepatocytes; for hepatocyte CLint at 2 h, 4 µM: CLint (hamster hepatocytes + ritonavir 4:1); for hepatocyte CLint at 2 h, 2 µM: CLint (hamster hepatocytes)
[15] = in vitro; conditions: human, hepatocytes
[16] = in vitro; conditions: hamster, microsomes, pH 7.4
[17] = in vitro; conditions: human, microsomes, pH 7.4
[18] = Mouse hepatocyte stability; conditions: mouse, cryopreserved hepatocytes
[19] = Human hepatocyte stability; conditions: cryopreserved hepatocytes
[20] = Hamster hepatocyte stability; conditions: cryopreserved hepatocytes; for half-life at 2 h, 2 µM: t1/2 (hamster hepatocytes), without ritonavir
[21] = Human liver microsomal stability; conditions: microsomes, pH 7.4
[22] = Hamster liver microsomal stability; conditions: microsomes, pH 7.4
[23] = Severe acute respiratory syndrome coronavirus 2, Vero C1008, read-out: SARS-CoV-2 CPE reduction assay pEC50 (converted)
[24] = % remaining at 120 min (hamster hepatocytes, compound/ritonavir 1:1)
[25] = % remaining at 120 min (hamster hepatocytes, compound/ritonavir 2:1)
[26] = CLint (hamster hepatocytes, compound/ritonavir 1:1)
[27] = CLint (hamster hepatocytes, compound/ritonavir 2:1)
[28] = t1/2 (hamster hepatocytes, compound/ritonavir 1:1)
[29] = t1/2 (hamster hepatocytes, compound/ritonavir 2:1)

T1 sequence (P07711 114-333): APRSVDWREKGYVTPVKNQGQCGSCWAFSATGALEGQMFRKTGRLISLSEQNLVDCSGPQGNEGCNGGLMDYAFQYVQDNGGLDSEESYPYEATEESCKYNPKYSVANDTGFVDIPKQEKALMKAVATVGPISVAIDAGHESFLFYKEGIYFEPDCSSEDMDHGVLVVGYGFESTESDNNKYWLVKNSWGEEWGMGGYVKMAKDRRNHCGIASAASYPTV

Row | Structure (SMILES) | hCTSL biochemical assay pIC50 [1] | IC50 [2] | pIC50 (hamster CTSL) [3] | EC50 [4] | EC50 [5, 23] | inhibition at 10 µM [6] | inhibition at 10 µM [7] | inhibition at 10 µM [8] | mouse plasma protein binding, fraction bound (Fb) [9] | CC50 [11] | solubility kinetic at 24 h [12] | hepatocyte CLint at 2 h, 2 µM [13] | remaining at 2 h, 1 µM [14, 24] | remaining at 2 h, 1 µM [14, 25] | hepatocyte CLint at 2 h, 4 µM [14] | hepatocyte CLint at 2 h, 2 µM [14] | hepatocyte CLint at 1 µM [14, 26] | hepatocyte CLint at 1 µM [14, 27] | half-life at 1 µM [14, 28] | half-life at 1 µM [14, 29] | other results
1 | CC(C)(O)c1c(F)c(F)c(OCC(=O)[C@H](C[C@@H]2CCNC2=O)NC(=O)[C@@H]2[C@@H]3[C@H](CN2C(=O)[C@@H](NC(=O)C(F)(F)F)C(C)(C)C)C3(C)C)c(F)c1F [compound 14, (1R,2S,5S)-3-((S)-3,3-Dimethyl-2-(2,2,2-trifluoroacetamido)butanoyl)-6,6-dimethyl-N-((S)-3-oxo-1-((S)-2-oxopyrrolidin-3-yl)-4-(2,3,5,6-tetrafluoro-4-(2-hydroxypropan-2-yl)phenoxy)butan-2-yl)-3-azabicyclo[3.1.0]hexane-2-carboxamide] | < 4.30 | > 50100 nM | 4.67 ± 0.33 | > 30200 nM | 39.8 nM | -7% | 7% | -23% | 99.24% | > 501 nM | 77.2 µM (≈ 57 µg/mL) | 112 µL/min/1e6 cells | 28.8% | 4.42% | 44.7 µL/min/1e6 cells | 62.1 µL/min/1e6 cells | 9.3 µL/min/1e6 cells | 25.4 µL/min/1e6 cells | 74.5 min | 27.2 min | hCTSL activity (in words) ([1]; biochemical assay): no hCTSL and hCTSB activity was observed; clinical signs upon intraperitoneal dosing ([10]; female, Syrian golden): the animals were found dull and lethargic 15 min up until 45 min postdosing; hepatocyte CLint at 1 µM ([13]; CLint (mouse hepatocytes + ritonavir 4:1)): 26.7 µL/min/1e6 cells; hepatocyte CLint at 2 h, 2 µM [15]: 6.6 µL/min/1e6 cells; microsomal CLint at 1 µM [16]: 377 µL/min/mg; remaining at 1 h, 1 µM [16]: 0.1%; microsomal CLint [17]: 40 µL/min/mg; remaining at 1 h [17]: 30.2%; half-life at 1 µM [18]: 15.5 min; half-life at 2 h, 2 µM [19]: 105 min; half-life at 2 h, 2 µM [20]: 11.2 min; half-life at 1 µM ([20]; with ritonavir 0.25 µM (compound/ritonavir 4:1), t1/2 (hamster hepatocytes + ritonavir 4:1), compound/ritonavir 4:1): 15.5 min; half-life [21]: 35 min; half-life at 1 µM [22]: 1.73 min
2 | COc1cccc2[nH]c(C(=O)N[C@@H](Cc3cccc(F)c3)C(=O)N[C@@H](C[C@@H]3CCNC3=O)C(=O)COc3c(F)c(F)c(CO)c(F)c3F)cc12 [compound 1, N-((S)-3-(3-Fluorophenyl)-1-oxo-1-(((S)-3-oxo-1-((S)-2-oxopyrrolidin-3-yl)-4-(2,3,5,6-tetrafluoro-4-(hydroxymethyl)phenoxy)butan-2-yl)amino)propan-2-yl)-4-methoxy-1H-indole-2-carboxamide] | 7.54 | 83.2 nM | 8.34 ± 0.09 | 2510 nM | 129 nM | 3% | 11% | 8% | 98.06% | > 1000 nM | 18 µM (≈ 12.6 µg/mL) | 186 µL/min/1e6 cells | 2.51% | 0.56% | 77.1 µL/min/1e6 cells | 87.6 µL/min/1e6 cells | 31.4 µL/min/1e6 cells | 48.1 µL/min/1e6 cells | 22.1 min | 14.4 min | EC50 ([5]; Severe acute respiratory syndrome coronavirus 2, Vero C1008, read-out: EC50 (CPE)): 130 nM; clinical signs upon intraperitoneal dosing [10]: no clinical signs have been observed; half-life at 2 h, 4 µM ([14]; t1/2 (hamster hepatocytes + ritonavir 4:1)): 9 min; hepatocyte CLint at 2 h, 2 µM [15]: 12.5 µL/min/1e6 cells; microsomal CLint at 1 µM [16]: 2370 µL/min/mg; remaining at 1 h, 1 µM [16]: 0%; microsomal CLint [17]: 350 µL/min/mg; remaining at 1 h [17]: 0%; half-life at 1 µM [18]: 9.3 min; half-life at 2 h, 2 µM [19]: 55.5 min; half-life at 2 h, 2 µM [20]: 7.9 min; half-life [21]: 4.04 min; half-life at 1 µM [22]: 0.58 min
